Our source for the IC50, inhibition and CC50 values is patent US10189863B2, “5,6-dihydro-4H-benzo[b]thieno-[2,3-d]azepine derivatives” (PULMOCIDE LIMITED, priority 2014, dated 2019).

In one data set the test system is RSV A2 strain. As to the kind of experiment: Assessment of RSV induced CPE in HEp2 cells (RSV A2 strain). It counts as cell-based. As to conditions: human respiratory syncytial virus, HEp2 cells; for IC50: HEp-2, 120 h, 1 MOI, 5 days, read-out: RSV A2 CPE IC50; for inhibition at 0.1 µg/mL / inhibition at 0.01 µg/mL: HEp-2; for inhibition at 0.1 µg/mL: Inhibition (%) at 0.1 μg/mL, read-out: RSV A2 CPE % Inhibition; for inhibition at 0.01 µg/mL: Inhibition (%) at 0.01 μg/mL. As to the method:
(§1) Assessment of RSV Induced CPE in HEp2 Cells
(§2) HEp2 cells were seeded (10^3/well/50 μL) in 384-well plates (Catalogue number 353962, BD Falcon, Oxford, UK) in […] containing 2 mM L-glutamine and 1 mM sodium pyruvate one day before infection. RSV A2 strain (#0709161v, NCPV, Public Health England, Wiltshire) or RSV B Washington strain (VR-1580, ATCC, Manassas, Va. 20108) virus solutions were prepared in serum free-DMEM with 2 mM L-glutamine and 1 mM sodium pyruvate, and then added (50 μL/well) to achieve a final virus concentration of 1 MOI. Simultaneously test compounds (0.5 μL DMSO solution) were added to 100 μL of HEp2 cell culture with virus solution to provide a final DMSO solution of 0.5%. Plates were incubated (37° C./5% CO2) for 5 days for studies using RSV A2 strain or 6 days for those using RSV B strain, and then resazurin sodium salt (5 μL of 0.03% solution; Sigma-Aldrich, Dorset, UK) was added to each well and the plate incubated for a further 6 hr (37° C./5% CO2). The fluorescence of each well [545 nm (excitation)/590 nm (emission)] was determined using a multi-scanner (Clariostar: BMG, Buckinghamshire, UK). The percentage inhibition for each well was calculated and the IC50, IC75 and IC90 values were calculated from the concentration-response curve generated for each test compound.

The next data set has as its system RSV B Washington strain. As to the kind of experiment: Assessment of RSV induced CPE in HEp2 cells (RSV B Washington strain). It counts as cell-based. As to conditions: human respiratory syncytial virus, HEp2 cells; for IC50: HEp-2, 144 h, 1 MOI, 6 days, read-out: RSV B CPE IC50; for inhibition at 1 µg/mL: HEp-2, Inhibition (%) at 1 μg/mL, read-out: RSV B CPE % Inhibition. As to the method: as §1, §2

A short description of data set [1]: Cell viability: resazurin assay. It counts as cell-based, human. Conditions: human, HEp2 cells. As to the method: Cell Viability: Resazurin Assay
HEp2 cells were seeded in 384-well plates (10^3/well/50 μL; BD Falcon Ref 353962) in FBS DMEM (5%, containing 2 mM L-glutamine and 1 mM sodium pyruvate) one day before experimentation. Serum-free DMEM (50 μL) was added to test wells while for control wells the media was removed and sterile water (100 μL) was added. Test compounds (0.5 μL DMSO solution) were added to give a final DMSO concentration of 0.5%. Hep2 cells were incubated with each test compound for 5 days (37° C./5% CO2 in 5% FBS) and then resazurin stock solution (5 μL; 0.03%) was added to each well and the plate incubated for a further 6 hr (37° C./5% CO2). The fluorescence of each well at 545 nm (excitation) and 590 nm (emission) was determined using a multi-scanner (Clariostar: BMG Labtech). The percentage loss of cell viability was calculated for each well relative to vehicle (0.5% DMSO) treatment.
Any apparent increase in cell viability associated with test compound treatment relative to vehicle is consequently tabulated as a negative percentage. Where appropriate, a CC50 value was calculated from the concentration-response curve generated from the concentration-response curve for each test compound.
Background: The colour change of resazurin is a common sign of viable cells or microbes.

The IC50 is the concentration that gives 50% inhibition. Broadly, the inhibition is how much of the control response was suppressed. Broadly, the CC50 is the concentration at which the toxic effect on the cells reaches its halfway point. A high value points to better tolerance by the cells.

For `Cc1cnc(N2CC3(CCOCC3)C2)c(C(=O)Nc2ccc(C(=O)N3CCc4cc(C(=O)Nc5c(Cl)cccc5Cl)sc4-c4ccccc43)cc2)c1` [Example 57, N-(2,6-dichlorophenyl)-6-(4-(5-methyl-2-(7-oxa-2-aza-spiro[3.5]nonan-2-yl)nicotinamido)benzoyl)-5,6-dihydro-4H-benzo[b]thieno[2,3-d]azepine-2-carboxamide], in the data set with RSV A2 strain, the IC50 worked out at 0.13 nM and the inhibition at 0.1 µg/mL is 91%. In addition, in the data set on RSV B Washington strain, the IC50 is 1.4 nM and the inhibition at 1 µg/mL is 74%. The CC50 at 5 days in data set [1] is more than 13300 nM.
For `Cc1cccc(C#N)c1NC(=O)c1cc2c(s1)-c1ccccc1N(C(=O)c1ccc(NC(=O)c3cc4c(nc3N3CC5(CCOCC5)C3)CCC4)cc1F)CC2` [Example 77, 6-(4-(2-(7-oxa-2-azaspiro[3.5]nonan-2-yl)-6,7-dihydro-5H-cyclopenta[b]pyridine-3-carboxamido)-2-fluorobenzoyl)-N-(2-cyano-6-methylphenyl)-5,6-dihydro-4H-benzo[b]thieno [2,3-d]azepine-2-carboxamide], in the data set with RSV A2 strain, the IC50 was 4.9 nM and testing at 0.01 µg/mL gave an inhibition of 94%. In the data set with RSV B Washington strain, the IC50 was 19.2 nM and the inhibition at 1 µg/mL came out at 92%. In data set [1], this compound registered a CC50 at 5 days of more than 13000 nM.
Turning to `Cc1cnc(N2CC3(CCOCC3)C2)c(C(=O)Nc2ccc(C(=O)N3CCc4cc(C(=O)Nc5c(C)cccc5Cl)sc4-c4ccccc43)cc2)c1` [Example 56, N-(2-chloro-6-methylphenyl)-6-(4-(5-methyl-2-(7-oxa-2-azaspiro[3.5]nonan-2-yl)nicotinamido)benzoyl)-5,6-dihydro-4H-benzo[b]thieno[2,3-d]azepine-2-carboxamide], in the data set with RSV A2 strain, the IC50 was 0.14 nM and the inhibition at 0.1 µg/mL was determined as 94%. Further, in the data set on RSV B Washington strain, the IC50 was 4.1 nM and the inhibition at 1 µg/mL amounted to 89%. In data set [1], this compound returned a CC50 at 5 days of more than 13700 nM.
For `Cc1cnc(N2CC3(CCOCC3)C2)c(C(=O)Nc2ccc(C(=O)N3CCc4cc(C(=O)Nc5c(F)cc(F)cc5F)sc4-c4ccccc43)c(F)c2)c1` [Example 59, 6-(2-fluoro-4-(5-methyl-2-(7-oxa-2-azaspiro[3.5]nonan-2-yl)nicotinamido)benzoyl)-N-(2,4,6-trifluorophenyl)-5,6-di-hydro-4H-benzo[b]thieno[2,3-d]azepine-2-carboxamide] the same measures were 0.23 nM, 100%, 13.8 nM, 93% and more than 13200 nM.
For `COc1ccc(NC(=O)c2cc3c(s2)-c2ccccc2N(C(=O)c2ccc(NC(=O)c4cccnc4N4CC5(CCOCC5)C4)cc2)CC3)c(F)c1` [Example 23, 6-(4-(2-(7-oxa-2-azaspiro[3.5]nonan-2-yl)nicotinamido)benzoyl)-N-(2-fluoro-4-methoxyphenyl)-5,6-dihydro-4H-benzo[b]thieno[2,3-d]azepine-2-carboxamide], in the data set on RSV A2 strain, the IC50 was 1.1 nM and the inhibition at 0.1 µg/mL amounted to 100%. Besides, in the data set with RSV B Washington strain, the IC50 turned out to be 16.3 nM and the inhibition at 1 µg/mL was 55%. The CC50 at 5 days in data set [1] is more than 13900 nM.
Take `Cc1cnc(N2CC3(CCOCC3)C2)c(C(=O)Nc2ccc(C(=O)N3CCc4cc(C(=O)Nc5c(C)cccc5CO)sc4-c4ccccc43)cc2)c1` [Example 58, N-(2-(hydroxymethyl)-6-methylphenyl)-6-(4-(5-methyl-2-(7-oxa-2-azaspiro[3.5]nonan-2-yl)nicotinamido)benzoyl)-5,6-dihydro-4H-benzo[b]thieno[2,3-d]azepine-2-carboxamide]: in the data set with RSV A2 strain, the IC50 is 0.32 nM and the inhibition at 0.01 µg/mL turned out to be 100%. For the same compound, in the data set on RSV B Washington strain, the half-inhibitory concentration (IC50) turned out to be 8.6 nM and the inhibition at 1 µg/mL was determined as 100%. Besides, in data set [1], the CC50 at 5 days was more than 13700 nM.
Turning to `Cc1cccc(F)c1NC(=O)c1cc2c(s1)-c1ccccc1N(C(=O)c1ccc(NC(=O)c3cc(Cl)cnc3N3CC4(CCOCC4)C3)cc1)CC2` [Example 69, 6-(4-(5-chloro-2-(7-oxa-2-azaspiro[3.5]nonan-2-yl)nicotinamido)benzoyl)-N-(2-fluoro-6-methylphenyl)-5,6-dihydro-4H-benzo[b]thieno[2,3-d]azepine-2-carboxamide], in the data set on RSV A2 strain, the IC50 came out at 0.45 nM and the inhibition at 0.01 µg/mL amounted to 96%. In the data set on RSV B Washington strain, the IC50 stood at 15.3 nM and the inhibition at 1 µg/mL is 100%. The compound also gave a CC50 at 5 days in data set [1] of more than 13600 nM.
Turning to `C=C(C)c1cnc(N2CC3(CCOCC3)C2)c(C(=O)Nc2ccc(C(=O)N3CCc4cc(C(=O)Nc5c(F)cccc5F)sc4-c4ccccc43)cc2)c1` [Example 73, N-(2,6-difluorophenyl)-6-(4-(5-(prop-1-en-2-yl)-2-(7-oxa-2-azaspiro[3.5]nonan-2-yl)nicotinamido)benzoyl)-5,6-dihydro-4H-benzo[b]thieno[2,3-d]azepine-2-carboxamide], in the data set on RSV A2 strain, the IC50 amounted to 2.6 nM and testing at 0.01 µg/mL gave an inhibition of 84%. In the data set on RSV B Washington strain, the IC50 was found to be 14.8 nM and the inhibition at 1 µg/mL is 98%. This compound yielded a CC50 at 5 days in data set [1] of more than 13400 nM.
The corresponding values for `Cc1cnc(N2CC3(COC3)C2)c(C(=O)Nc2ccc(C(=O)N3CCc4cc(C(=O)Nc5c(C)cccc5F)sc4-c4ccccc43)cc2)c1` [Example 90, N-(2-fluoro-6-methylphenyl)-6-(4-(5-methyl-2-(2-oxa-6-azaspiro[3.3]heptan-6-yl)nicotinamido)benzoyl)-5,6-dihydro-4H-benzo[b]thieno[2,3-d]azepine-2-carboxamide] are 1.8 nM, 100%, 508 nM, 99% and more than 14500 nM.
For `O=C(Nc1c(F)cccc1Cl)c1cc2c(s1)-c1ccccc1N(C(=O)c1ccc(NC(=O)c3cc4c(nc3N3CC5(CCOCC5)C3)CCOC4)cc1)CC2` [Example 83, N-(4-(2-((2-chloro-6-fluorophenyl)carbamoyl)-5,6-di-hydro-4H-benzo[b]thieno[2,3-d]azepine-6-carbonyl)phenyl)-2-(7-oxa-2-azaspiro[3.5]nonan-2-yl)-7,8-dihydro-5H-pyrano [4,3-b]pyridine-3-carboxamide] the same measures were 0.15 nM, 100%, 6.2 nM, 95% and more than 12800 nM.
On to `CCc1cnc(N2CC3(CCOCC3)C2)c(C(=O)Nc2ccc(C(=O)N3CCc4cc(C(=O)Nc5c(F)cccc5Cl)sc4-c4ccccc43)cc2)c1` [Example 61, N-(2-chloro-6-fluorophenyl)-6-(4-(5-ethyl-2-(7-oxa-2-azaspiro[3.5]nonan-2-yl)nicotinamido)benzoyl)-5,6-dihydro-4H-benzo[b]thieno[2,3-d]azepine-2-carboxamide], for which, in the data set with RSV A2 strain, the IC50 came out at 0.13 nM and the inhibition at 0.1 µg/mL was found to be 97%. Also, in the data set with RSV B Washington strain, the IC50 is 4.1 nM and the inhibition at 1 µg/mL came to 100%. This compound displayed a CC50 at 5 days in data set [1] of more than 13300 nM.
Consider `O=C(Nc1c(F)cc(F)cc1F)c1cc2c(s1)-c1ccccc1N(C(=O)c1ccc(NC(=O)c3cccnc3N3CC4(CCOCC4)C3)cc1)CC2` [Example 28, 6-(4-(2-(7-oxa-2-azaspiro[3.5]nonan-2-yl)nicotinamido)benzoyl)-N-(2,4,6-trifluorophenyl)-5,6-dihydro-4H-benzo[b] thieno[2,3-d]azepine-2-carboxamide], for which, in the data set on RSV A2 strain, the IC50 was 0.17 nM and the inhibition at 0.1 µg/mL turned out to be 96%. For the same compound, in the data set with RSV B Washington strain, the IC50 came out at 41.4 nM and the inhibition at 1 µg/mL is 66%. This compound gave a CC50 at 5 days in data set [1] of more than 13800 nM.
